Measurements from USRE48461E1, “Modulation of androgen receptor expression” (Ionis Pharmaceuticals, Inc., priority 2012, dated 2021).

Legend:
LMR20 cells = experiment: Proliferation of MDV3100-resistant LMR20 cells (MTT; with R1881 or DHT); format: cell-based, human; settings: 5 days
Procedure: LMR20 cells were plated at 1,500 cells per well in phenol red-free medium with charcoal-stripped fetal bovine serum (CSS), to remove any androgens from the medium (Life Technologies). […] The synthetic androgen agonist, R1881, (Takeda, A. N. et al., Mol. Pharmacol. 2007. 71: 473-82) was added on day 1 at 1 nM dose to a set of cells also treated with each of the antisense oligonucleotides. DHT was added on day 1 at a dose of 10 nM to another set of cells also treated with each of the antisense oligonucleotides. […] After a treatment period of 5 days, the proliferative ability of the cancer cells was measured by the standard MTT assay. Results are presented in Table 42 as percent inhibition of proliferation, relative to non-treated cells.

[1] = test system: prostate-specific antigen (PSA) mRNA; experiment: PSA mRNA levels in LMR20 cells; format: cell-based, human; settings: with or without DHT/R1881
Procedure: LMR20 cells were plated at 1,500 cells per well in phenol red-free medium with CSS. […] Results are presented in Tables 43-45 as mRNA levels expressed as a percentage of the baseline values. mRNA levels may be lowered or increased after treatment.

22RV1 cells = experiment: 22RV1 cell proliferation, ASO in combination with MDV3100 (Example 22); format: cell-based, human; settings: for Proliferation (% untreated control) in 22RV1 without MDV-3100: RNAiMAX, 3 days
Procedure: 22RV1 cells were plated at 2,000 cells per well in 5% CSS medium for 48 hours. […] ISIS 549148 was included as a negative control. […] After a treatment period of 3 days, the proliferative capacity of the cancer cells was measured with CellTiter 96® AQueous One Solution Cell Proliferation kit (Promega), following the manufacturer's instructions. Results are presented in Tables 58-62 as percent inhibition of proliferation, relative to non-treated cells.

AR mRNA = experiment: AR RNA expression in C4-2 cells (complete, CSS+DHT medium); format: cell-based, human; settings: 48 hrs; for Percent expression of AR: C4-2 cells, CSS + DHT medium
Procedure: Cells were plated at 1,000 cells per well. […] After an incubation period of 48 hrs, RNA levels of AR, PSA and TMPRSS2 were measured.
Cells were plated at 2,000 cells per well and cultured in CSS media with 1 nM DHT. […] After an incubation period of 48 hrs, RNA levels of AR, PSA and TMPRSS2 were measured.

PSA mRNA = experiment: PSA expression in C4-2B cells (Example 30); format: cell-based, human; settings: 48 hrs
Procedure: Cells were plated at 1,000 cells per well. […] ISIS 549148 was included as a negative control. […] After an incubation period of 48 hrs, RNA levels of AR, PSA and TMPRSS2 were measured.
Cells were plated at 2,000 cells per well and cultured in CSS media with 1 nM DHT. […] ISIS 549148 was included as a negative control. […] After an incubation period of 48 hrs, RNA levels of AR, PSA and TMPRSS2 were measured. In the absence of DHT, AR expression in C4-2 cells was 188%, PSA expression was 43% and TMPRSS2 expression was 27% compared to the untreated control.

TMPRSS2 mRNA = experiment: TMPRSS2 expression in VCaP cells; format: cell-based, human; settings: RNAiMax, 48 hrs
Procedure: Cells were plated at 10,000 cells per well. […] After an incubation period of 48 hrs, RNA levels of full length AR, the V7 variant, PSA and TMPRSS2 were measured.
After an incubation period of 48 hrs, RNA levels of full length AR, the V7 variant, PSA and TMPRSS2 were measured. The data is presented in Tables 108 expressed as percent expression of gene levels compared to the untreated control.
Cells were plated at 15,000 cells per well and cultured in CSS media for 16 hours. […] After 4 hrs, 1 nM DHT was added. […] After an incubation period of 48 hrs, RNA levels of AR, PSA and TMPRSS2 were measured.

cleaved PARP = experiment: Cleaved PARP western blot in VCaP cells; format: cell-based, human
MDA-MB-453 tumor = experiment: Tumor volume in MDA-MB-453 breast cancer orthotopic model; format: in vivo, NSG mice; settings: Study 2, MDA-MB-453 model, NSG mice, 50 mg/kg s.c. 5 days per week for 2 weeks

With “TGATTTAATGGTTGCA [ISIS 569236] (cEt/MOE gapmer chemistry, further chemistry not given here) [targets intron 1]” the “Percent inhibition of LMR20 cell proliferation” value (LMR20 cells; CSS + DHT, ASO 0.04 μM) was 0%, the “Percent inhibition of LMR20 cell proliferation” value (LMR20 cells; CSS + DHT, ASO 0.20 μM) was 10% and the “Percent inhibition of LMR20 cell proliferation” value (LMR20 cells; CSS + DHT, ASO 1.0 μM) was 32%. The “Percent inhibition of LMR20 cell proliferation” value (LMR20 cells; CSS + DHT, ASO 5.0 μM) was 57%, the “Percent inhibition of LMR20 cell proliferation” value (LMR20 cells; CSS + R1881, ASO 0.04 μM) was 0% and the “Percent inhibition of LMR20 cell proliferation” value (LMR20 cells; CSS + R1881, ASO 0.20 μM) was 2%. For the same sequence, the “Percent inhibition of LMR20 cell proliferation” value (LMR20 cells; CSS + R1881, ASO 1.0 μM) was 34%, the “Percent inhibition of LMR20 cell proliferation” value (LMR20 cells; CSS + R1881, ASO 5.0 μM) was 61% and the “Percent inhibition of LMR20 cell proliferation” value (LMR20 cells; CSS, ASO 0.04 μM) was 0%. The “Percent inhibition of LMR20 cell proliferation” value (LMR20 cells; CSS, ASO 0.20 μM) was 10%, the “Percent inhibition of LMR20 cell proliferation” value (LMR20 cells; CSS, ASO 1.0 μM) was 0% and the “Percent inhibition of LMR20 cell proliferation” value (LMR20 cells; CSS, ASO 5.0 μM) was 12%. The LMR20 cell proliferation (LMR20 cells; in the presence of R1881 or DHT, 0.04-5.0 μM) was “significantly inhibited MDV3100-resistant prostate cancer cell proliferation in a dose dependent manner more extensively than ISIS 554221”, the “PSA mRNA levels in LMR20 cells” value [1] was “reduced PSA levels and TMPRSS2 more extensively than the LNA gapmer ISIS 554221 or MDV3100” and the “synergy with MDV3100” value (22RV1 cells; 22RV1 cells) was “synergistic with MDV3100”. The “inhibited cell proliferation, ASO alone” value (22RV1 cells; 22RV1 cells, ASO alone at 1.0 μM) was 17%, the “cell proliferation inhibited, combination” value (22RV1 cells; 22RV1 cells, ISIS 569236 (1.0 μM as printed) in combination with 1.0 μM MDV3100) was 30% and the “Proliferation (% untreated control) in 22RV1 cells with 0.04 μM MDV-3100” value (22RV1 cells; ASO dose 0.4 nM + 0.04 μM MDV-3100) was 83 % untreated control. The “Proliferation (% untreated control) in 22RV1 cells with 0.2 μM MDV-3100” value (22RV1 cells; ASO dose 0.4 nM + 0.2 μM MDV-3100) was 93 % untreated control, the “Proliferation (% untreated control) in 22RV1 cells with 1.0 μM MDV-3100” value (22RV1 cells; ASO dose 0.4 nM + 1.0 μM MDV-3100) was 79 % untreated control and the “Proliferation (% untreated control) in 22RV1 cells with 5.0 μM MDV-3100” value (22RV1 cells; ASO dose 0.4 nM + 5.0 μM MDV-3100) was 82 % untreated control. The “Proliferation (% untreated control) in 22RV1 without MDV-3100” value (22RV1 cells; ASO dose 0.4 nM) was 97 % untreated control, the “Proliferation (% untreated control) in 22RV1 cells with 0.04 μM MDV-3100” value (22RV1 cells; ASO dose 1.34 nM + 0.04 μM MDV-3100) was 70 % untreated control and the “Proliferation (% untreated control) in 22RV1 cells with 0.2 μM MDV-3100” value (22RV1 cells; ASO dose 1.34 nM + 0.2 μM MDV-3100) was 77 % untreated control. The “Proliferation (% untreated control) in 22RV1 cells with 1.0 μM MDV-3100” value (22RV1 cells; ASO dose 1.34 nM + 1.0 μM MDV-3100) was 70 % untreated control, the “Proliferation (% untreated control) in 22RV1 cells with 5.0 μM MDV-3100” value (22RV1 cells; ASO dose 1.34 nM + 5.0 μM MDV-3100) was 72 % untreated control and the “Proliferation (% untreated control) in 22RV1 without MDV-3100” value (22RV1 cells; ASO dose 1.34 nM) was 83 % untreated control. For the same sequence, the “Proliferation (% untreated control) in 22RV1 cells with 0.04 μM MDV-3100” value (22RV1 cells; ASO dose 4.0 nM + 0.04 μM MDV-3100) was 61 % untreated control, the “Proliferation (% untreated control) in 22RV1 cells with 0.2 μM MDV-3100” value (22RV1 cells; ASO dose 4.0 nM + 0.2 μM MDV-3100) was 60 % untreated control and the “Proliferation (% untreated control) in 22RV1 cells with 1.0 μM MDV-3100” value (22RV1 cells; ASO dose 4.0 nM + 1.0 μM MDV-3100) was 52 % untreated control. The “Proliferation (% untreated control) in 22RV1 cells with 5.0 μM MDV-3100” value (22RV1 cells; ASO dose 4.0 nM + 5.0 μM MDV-3100) was 52 % untreated control, the “Proliferation (% untreated control) in 22RV1 without MDV-3100” value (22RV1 cells; ASO dose 4.0 nM) was 69 % untreated control and the “Proliferation (% untreated control) in 22RV1 cells with 0.04 μM MDV-3100” value (22RV1 cells; ASO dose 13.4 nM + 0.04 μM MDV-3100) was 24 % untreated control. For the same sequence, the “Proliferation (% untreated control) in 22RV1 cells with 0.2 μM MDV-3100” value (22RV1 cells; ASO dose 13.4 nM + 0.2 μM MDV-3100) was 20 % untreated control, the “Proliferation (% untreated control) in 22RV1 cells with 1.0 μM MDV-3100” value (22RV1 cells; ASO dose 13.4 nM + 1.0 μM MDV-3100) was 18 % untreated control and the “Proliferation (% untreated control) in 22RV1 cells with 5.0 μM MDV-3100” value (22RV1 cells; ASO dose 13.4 nM + 5.0 μM MDV-3100) was 24 % untreated control. For the same sequence, the “Proliferation (% untreated control) in 22RV1 without MDV-3100” value (22RV1 cells; ASO dose 13.4 nM) was 37 % untreated control, the “Percent expression of AR” value (AR mRNA; 0.04 μM) was 89% and the “Percent expression of AR” value (AR mRNA; 0.2 μM) was 82%. For the same sequence, the “Percent expression of AR” value (AR mRNA; 1 μM) was 52%, the “Percent expression of AR” value (AR mRNA; 5.0 μM) was 23% and the “Percent expression of AR in C4-2 cells cultured in complete medium” value (from here on “Percent expression of AR … in complete medium”) (AR mRNA; 0.04 μM) was 72%. The “Percent expression of AR … in complete medium” value (AR mRNA; 0.2 μM) was 27%, the “Percent expression of AR … in complete medium” value (AR mRNA; 1 μM) was 11% and the “Percent expression of AR … in complete medium” value (AR mRNA; 5.0 μM) was 9%. For the same sequence, the “Percent inhibition of PSA expression” value (PSA mRNA; CSS + DHT medium, 0.04 μM) was 0%, the “Percent inhibition of PSA expression” value (PSA mRNA; CSS + DHT medium, 0.2 μM) was 5% and the “Percent inhibition of PSA expression” value (PSA mRNA; CSS + DHT medium, 1 μM) was 33%. For the same sequence, the “Percent inhibition of PSA expression” value (PSA mRNA; CSS + DHT medium, 5.0 μM) was 46%, the “Percent inhibition of PSA expression” value (PSA mRNA; complete medium, 0.04 μM) was 30% and the “Percent inhibition of PSA expression” value (PSA mRNA; complete medium, 0.2 μM) was 72%. For the same sequence, the “Percent inhibition of PSA expression” value (PSA mRNA; complete medium, 1 μM) was 81%, the “Percent inhibition of PSA expression” value (PSA mRNA; complete medium, 5.0 μM) was 89% and the “Percent inhibition of TMPRSS2 expression” value (TMPRSS2 mRNA; CSS + DHT medium, 1.34 nM) was 6%. For the same sequence, the “Percent inhibition of TMPRSS2 expression” value (TMPRSS2 mRNA; CSS + DHT medium, 4.0 nM) was 19%, the “Percent inhibition of TMPRSS2 expression” value (TMPRSS2 mRNA; CSS + DHT medium, 13.4 nM) was 40% and the “Percent inhibition of TMPRSS2 expression” value (TMPRSS2 mRNA; CSS + DHT medium, 40 nM) was 54%. The “Percent inhibition of TMPRSS2 expression” value (TMPRSS2 mRNA; complete medium, 1.34 nM) was 0%, the “Percent inhibition of TMPRSS2 expression” value (TMPRSS2 mRNA; complete medium, 4.0 nM) was 0% and the “Percent inhibition of TMPRSS2 expression” value (TMPRSS2 mRNA; complete medium, 13.4 nM) was 0%. The “Percent inhibition of TMPRSS2 expression” value (TMPRSS2 mRNA; complete medium, 40 nM) was 36%, the “cleaved PARP levels (western blot)” value (cleaved PARP) was “increased in a dose-dependent manner” and the Tumor volumes (MDA-MB-453 tumor; Day 0) was 134. The Tumor volumes (MDA-MB-453 tumor; Day 8) was 283, the Tumor volumes (MDA-MB-453 tumor; Day 13) was 260 and the Tumor volumes (MDA-MB-453 tumor; Day 20) was 230. The Tumor volumes (MDA-MB-453 tumor; Day 23) was 264, the Tumor volumes (MDA-MB-453 tumor; Day 27) was 329 and the Tumor volumes (MDA-MB-453 tumor; Day 29) was 323.
